Data taken from patent publication US9534300B2, “Water soluble substituted imidazolines as corrosion inhibitors for ferrous metals” (Ecolab USA, Inc., priority 2014, dated 2017).

experiment: Solubility in water of synthesized substituted imidazolines; format: physicochemical

Solubility in water, Yes Yes Yes:
CCCCCC1=NCCN1CCNCCC(=O)O [No. 5, 3-((2-(2-pentyl-4,5-dihydro-1H-imidazol-1-yl)ethyl)amino)propanoic acid]
CCCCCCCC1=NCCN1CCNCCC(=O)O [No. 6, 3-((2-(2-heptyl-4,5-dihydro-1H-imidazol-1-yl)ethyl)amino)propanoic acid]
CCCCCCCCCCCC1=NCCN1CCNCCC(=O)O [No. 7, 3-((2-(2-undecyl-4,5-dihydro-1H-imidazol-1-yl)ethyl)amino)propanoic acid]
